Source: patent publication US12378247B2, “Mesylate salt of para-topolin, compositions containing said salt and use thereof” (USTAV EXPERIMENTALNI BOTANIKY AV CR, V. V. I., priority 2020, dated 2025)
Values joined by “and” are separate entries in the source; they are usually repeats but may differ in a detail not shown here. Identical values can stand only once. Counter-ions that a name gives are not always drawn.

Key:
[1] = Aqueous solubility (saturated solution, HPLC); type: physicochemical; conditions: thermodynamic from solid, water, read-out: concentration of saturated solution in water (aqueous solubility)
Experimental: Aqueous solubility was measured using the following protocol. Supersaturated solution of para-topolin mesylate salt in water was prepared. The solution was filtrated from visible undissolved particles of the salt to obtain saturated solution. Saturated solution was diluted 1:10 000 and measured using HPLC Alliance Waters 2690 with C18 Symmetry column with the diameter 2.1 mm and 150 mm length with a porosity of 5 μm. The sample was dissolved in the mobile phase (MeOH:HCOONH4-1:9). The sample was washed with a methanol gradient (10-90%, 35 min) at pH 4 and a flow rate of 0.3 ml/min. The absorbances of the components were detected in the UV region at 210-400 nm. The peak area was 2729231. Obtained peak area was compared to area peaks measured at certain concentration and the final concentration of saturated solution was determined.

[2] = Calcein AM cytotoxicity assay, HOS; type: cell-based, human; conditions: human, HOS cells (osteosarcoma), 3-day Calcein-AM assay, read-out: Cytotoxic activity IC50
Description: (§1) Because toxic compounds negatively influence metabolic processes of cells, many standard cytotoxicity assays are based on measurement of metabolisation rate of various artificial substrates. Resulting product is then quantified, for example, by means of spectrometry. The assays can be easily modified for use in 96-well plates. For evaluation of cytotoxicity of the […] of this invention, a microtiter assay based on quantification of metabolisation of Calcein AM was used. The assay is widely used in drug screening programs and in chemosensitivity testing. In live cells, Calcein AM is enzymatically hydrolysed and accumulation of the resulting calcein is manifested by green fluorescence. […]
(§2) Approximately 10,000 cells in 80 μL of medium were seeded into 96-well microtitre plates. […] The fluorescence of free calcein was then quantified using a Fluoroscan Ascent fluorometer (Microsystems), and the percentage of surviving cells in each well was calculated by dividing the OD obtained from each cell with exposed cells by the mean OD obtained from control wells×100%. […]

[3] = Stability study by XRPD diffraction; type: physicochemical; conditions: 25° C., on light, after 30 days
Experimental: X-ray powder diffraction studies were performed on a Bruker D8 Advance ECO diffractometer with Cu K-alpha radiation and SSD160 detector. Approximately 5 mg of sample was gently compressed on the XRPD sample holder. The sample was then loaded into a Bruker D8-Discover diffractometer in transmission mode and analyzed using the experimental conditions shown below: XRPD measurement conditions
Sample stability was tested at 25° C. for […] on light. […] XRPD of samples were taken after 30 days to investigate any solid form change (any difractogram/pattern change).

[4] = Calcein AM cytotoxicity assay, MCF7; type: cell-based; conditions: human, MCF-7 cells (breast adenocarcinoma); MCF7, 3-day Calcein-AM assay; read-out: Cytotoxic activity IC50
Description: as §1, §2

[5] = Calcein AM cytotoxicity assay, K562; type: cell-based; conditions: human, K562 cells (chronic myelogenous leukaemia), K562, 3-day Calcein-AM assay; read-out: Cytotoxic activity IC50
Description: as §1, §2

[6] = Calcein AM cytotoxicity assay, CEM; type: cell-based; conditions: human, CEM cells (T-lymphoblastic leukaemia), 3-day Calcein-AM assay, read-out: Cytotoxic activity IC50
Description: as §1, §2

[7] = Calcein AM cytotoxicity assay, HL60; type: cell-based; conditions: human, HL-60 cells (promyelocytic leukaemia); HL60, 3-day Calcein-AM assay; read-out: Cytotoxic activity IC50
Description: as §1, §2

Disproportionation study = type: physicochemical; conditions: 50 mg in 1 ml distilled water, ca. 48 hours, recrystallized
Experimental: A 50 mg sample of crystalline para-topolin mesylate salt was dissolved in 1 ml of distilled water, kept in solution for ca. 48 hours and then crystallized and checked by XRPD for disproportionation.

[8] = Calcein AM cytotoxicity assay, HELA; type: cell-based; conditions: human, HeLa cells (cervical carcinoma), 3-day Calcein-AM assay, read-out: Cytotoxic activity IC50
Description: as §1, §2

HOS (human osteosarcoma) = assay: Calcein AM cytotoxicity assay, HOS; type: cell-based; conditions: 3-day Calcein-AM assay, read-out: Cytotoxic activity IC50
Description: as §1, §2

[9] = water; reported value; cited from earlier work
[10] = test system: MCF-7 (breast adenocarcinoma); assay: Calcein AM cytotoxicity assay, MCF7; type: cell-based; conditions: MCF7, 3-day Calcein-AM assay; read-out: Cytotoxic activity IC50
Description: as §1, §2

[11] = test system: K562 (chronic myelogenous leukaemia); assay: Calcein AM cytotoxicity assay, K562; type: cell-based; conditions: K562, 3-day Calcein-AM assay; read-out: Cytotoxic activity IC50
Description: as §1, §2

[12] = test system: CEM (T-lymphoblastic leukaemia); assay: Calcein AM cytotoxicity assay, CEM; type: cell-based; conditions: 3-day Calcein-AM assay, read-out: Cytotoxic activity IC50
Description: as §1, §2

[13] = test system: HL-60 (promyelocytic leukaemia); assay: Calcein AM cytotoxicity assay, HL60; type: cell-based; conditions: HL60, 3-day Calcein-AM assay; read-out: Cytotoxic activity IC50
Description: as §1, §2

[14] = test system: HeLa (cervical carcinoma); assay: Calcein AM cytotoxicity assay, HELA; type: cell-based; conditions: 3-day Calcein-AM assay, read-out: Cytotoxic activity IC50
Description: as §1, §2

For `Oc1ccc(CNc2ncnc3nc[nH]c23)cc1` [para-topolin mesylate, 6-(4-hydroxybenzylamino) purine (para-topolin) mesylate (methylsulphonate)], the Solubility [1] was ~1.2e+06 µM and ~407000 µg/mL, the IC50 at 72 h [2] was over 167 µM and the “Solid-state stability (structure, color, XRPD pattern change)” value ([3]; listed as crystalline para-topolin mesylate salt) was “No structure nor color change”. For the same compound, the “Solid-state stability (structure, color, XRPD pattern change)” value ([3]; listed as para-topolin mesylate crystalline salt) was “no structural pattern changes detected”, the IC50 at 72 h [4] was over 167 µM and the IC50 at 72 h [5] was over 167 µM. For the same compound, the IC50 at 72 h [6] was over 167 µM, the IC50 at 72 h [7] was over 167 µM and the “Disproportionation (XRPD)” value (Disproportionation study) was “No signs of disproportionation”. It also gave an IC50 at 72 h [8] of over 167 µM.

For `Oc1ccc(CNc2ncnc3nc[nH]c23)cc1` [para-topolin, 6-(4-Hydroxybenzylamino) purine], the IC50 (HOS (human osteosarcoma)) is given as over 167 µM, the “aqueous solubility (reported)” value [9] is given as under 0.04 mg/mL and the IC50 [10] is given as over 167 µM. It also gave an IC50 [11] of 140 µM, an IC50 [12] of over 167 µM and an IC50 [13] of over 167 µM. For the same compound, the IC50 [14] was over 167 µM.
